Each structure is given as a SMILES string.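 Protocol summary: plate cells (96-well), add compound at 5 concentrations, incubate 48 h, interpolate endpoints linearly. At the GI50, growth is halved.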 Calls of active or inactive are those of the source. Cut-off read from the data, not from the text of the source: active = GI50 up to about 1.1 µM and inactive = higher.

Among the test systems are HL-60; CAKI-1; SW-620; A549; PC-3; OVCAR-5; NCI-H226; OVCAR-3; SK-OV-3; SR; RPMI-8226; UACC-62; U-251; SNB-75; SF-539; MDA-N; UACC-257; MDA-MB-435; SK-MEL-28; Malme-3M.
What all share (experiment): DTP human tumour cell line panel, 48 h

Broadly, the GI50 is the concentration that inhibits growth by half. With `Cc1ccc([N+](=O)[O-])c2c(NCCNC(=O)c3cc(C(=O)NCCNc4ccnc5c(C)ccc([N+](=O)[O-])c45)n(C)n3)ccnc12`, the GI50 in the test on HL-60 was 53.6 µM (inactive); with CAKI-1 it was 98.6 µM (inactive); in the test on SW-620, 32.9 µM (inactive); in the test with A549, > 57.1 µM (inactive); in the test on PC-3, > 100 µM (inactive); in the test on OVCAR-5 it was > 84.9 µM (inactive). Moreover, the GI50 was > 100 µM (inactive) with NCI-H226; > 80.9 µM (inactive) in the test with OVCAR-3; > 100 µM (inactive) in the test with SK-OV-3; 55.1 µM (inactive) with SR; 41.2 µM (inactive) in the test with RPMI-8226; > 47.4 µM (inactive) in the test on UACC-62. Besides, the GI50 with U-251 was > 89.5 µM (inactive); in the test on SNB-75, 45.2 µM (inactive); in the test on SF-539, > 100 µM (inactive); in the test on MDA-N it was > 43.7 µM (inactive); in the test with UACC-257, > 81.1 µM (inactive); in the test on MDA-MB-435, > 41.6 µM (inactive). Moreover, the GI50 is > 60.5 µM (inactive) in the test with SK-MEL-28 and 55.2 µM (inactive) in the test with Malme-3M.
For `CCN(CC)c1ccc2cc(C(=O)NCc3ccccc3)c(=N)oc2c1`, the GI50 with HL-60 is 39.1 µM (inactive); in the test on CAKI-1 it was > 44.8 µM (inactive); in the test on SW-620, 6.01 µM (inactive); in the test on A549 it was 42.1 µM (inactive); in the test on PC-3 it was 19.3 µM (inactive); with OVCAR-5 it was > 100 µM (inactive). Besides, the GI50 in the test on NCI-H226 was > 89.5 µM (inactive); with OVCAR-3, 15.6 µM (inactive); with SK-OV-3, 56.8 µM (inactive); with SR it was > 42.6 µM (inactive); with RPMI-8226, 6.95 µM (inactive); in the test with UACC-62 it was 14.3 µM (inactive). Further, the GI50 is 27.7 µM (inactive) in the test on U-251; 37.3 µM (inactive) with SNB-75; 46.3 µM (inactive) with SF-539; 70.5 µM (inactive) in the test with MDA-N; 20.4 µM (inactive) in the test on UACC-257; 6.7 µM (inactive) in the test on MDA-MB-435. Further, the GI50 is 66.2 µM (inactive) in the test on SK-MEL-28 and 15.2 µM (inactive) in the test on Malme-3M.
In the case of `CCOC(=O)CSc1nnc2cc(CN3CCCC3)c(-c3ccc(Cl)cc3)nn12`, the GI50 was 89.3 µM (inactive) in the test with HL-60; > 100 µM (inactive) in the test on CAKI-1; > 100 µM (inactive) in the test with SW-620; > 100 µM (inactive) in the test with A549; > 100 µM (inactive) with PC-3; > 100 µM (inactive) in the test with OVCAR-5. Also, the GI50 was > 100 µM (inactive) in the test on NCI-H226; > 100 µM (inactive) in the test with OVCAR-3; > 100 µM (inactive) in the test on SK-OV-3; 41 µM (inactive) in the test on SR; 63.2 µM (inactive) in the test with RPMI-8226; > 100 µM (inactive) in the test on UACC-62. Also, the GI50 in the test with U-251 was > 100 µM (inactive); in the test with SNB-75, 85.5 µM (inactive); in the test on SF-539, 60.1 µM (inactive); with MDA-N, 85.9 µM (inactive); in the test with UACC-257, 91.4 µM (inactive); in the test on MDA-MB-435, 72.9 µM (inactive). Moreover, the GI50 with SK-MEL-28 and in the test with Malme-3M was > 100 µM (inactive) in each case.
With `c1cnc2c(c1)ccc1cccnc12`, the GI50 with HL-60 was 0.354 µM (active); in the test on CAKI-1, 3.18 µM (inactive); with SW-620 it was 8.69 µM (inactive); with A549, 5.07 µM (inactive); in the test with PC-3, > 27.1 µM (inactive); with OVCAR-5, 5.31 µM (inactive). Moreover, the GI50 was 2.05 µM (inactive) in the test on NCI-H226; 6.67 µM (inactive) in the test on OVCAR-3; 11.7 µM (inactive) with SK-OV-3; 1.02 µM (active) with SR; 2.67 µM (inactive) with RPMI-8226; 3.81 µM (inactive) with UACC-62. Besides, the GI50 in the test on U-251 was > 20.2 µM (inactive); in the test on SNB-75, 13.6 µM (inactive); in the test with SF-539, 3.72 µM (inactive); in the test on MDA-N it was 4.97 µM (inactive); in the test on UACC-257, 3.78 µM (inactive); in the test with MDA-MB-435, 5.21 µM (inactive). Also, the values for the GI50 in the test on SK-MEL-28 and in the test on Malme-3M were 4.95 µM (inactive) and 3.56 µM (inactive), respectively.
As for `N#CC(C#N)=C1CCCS(=O)(=O)c2ccccc21`, the GI50 in the test on HL-60, with CAKI-1, in the test with SW-620, in the test on A549, with PC-3 and in the test with OVCAR-5 was > 100 µM (inactive) throughout. Also, the GI50 in the test with NCI-H226, in the test on OVCAR-3, with SK-OV-3, in the test on SR, in the test with RPMI-8226 and in the test on UACC-62 was > 100 µM (inactive) throughout. For the same compound, the GI50 in the test with U-251, in the test on SNB-75, in the test on SF-539, in the test on MDA-N, in the test with UACC-257 and in the test on MDA-MB-435 was > 100 µM (inactive) throughout. Further, the GI50 in the test with SK-MEL-28 is > 100 µM (inactive).
Turning to `Cc1cc2nc(N)n[n+]([O-])c2cc1C`, the GI50 in the test on HL-60, in the test on CAKI-1, with SW-620, in the test on A549, in the test on PC-3 and in the test with OVCAR-5 was > 100 µM (inactive) in each case. Also, the GI50 in the test on NCI-H226, with SK-OV-3, in the test on SR, in the test on RPMI-8226, with UACC-62 and with U-251 was > 100 µM (inactive) each time. Further, the GI50 in the test with SNB-75 was > 10 µM (inactive); with SF-539, > 100 µM (inactive); in the test with MDA-N it was > 100 µM (inactive); in the test with UACC-257, > 100 µM (inactive); in the test on MDA-MB-435 it was > 100 µM (inactive); with SK-MEL-28, > 100 µM (inactive). For the same compound, the GI50 in the test on Malme-3M was > 100 µM (inactive).
Regarding `CN(C)N1C(=C(C#N)C#N)C(c2ccccc2)CC1C#N` (stereo not given), the GI50 in the test with HL-60, in the test with CAKI-1, in the test with SW-620, in the test with A549, in the test on PC-3 and in the test on OVCAR-5 was > 100 µM (inactive) each time. Besides, the GI50 with NCI-H226 is > 100 µM (inactive); with SK-OV-3 it was > 100 µM (inactive); in the test on SR it was > 10 µM (inactive); in the test with RPMI-8226, > 100 µM (inactive); with UACC-62, > 100 µM (inactive); in the test with U-251, > 100 µM (inactive). Also, the GI50 in the test on SNB-75 was 57.8 µM (inactive); in the test with SF-539, > 100 µM (inactive); in the test on MDA-N it was > 100 µM (inactive); in the test with UACC-257, > 100 µM (inactive); in the test on MDA-MB-435 it was > 100 µM (inactive); with SK-MEL-28 it was > 100 µM (inactive). Besides, in the test with Malme-3M, the GI50 was > 100 µM (inactive).
On to `Cc1ccc(C2=CC(=O)OC(C[P+](c3ccccc3)(c3ccccc3)c3ccccc3)(c3ccccc3)O2)cc1` (stereo not given), for which the GI50 with HL-60 was 20.1 µM (inactive); in the test with CAKI-1, 15.4 µM (inactive); in the test with A549, 15.8 µM (inactive); with PC-3 it was 23.1 µM (inactive); in the test with OVCAR-5, 23.2 µM (inactive); in the test with NCI-H226, 27.1 µM (inactive). The GI50 is 16.4 µM (inactive) in the test with OVCAR-3; 18.2 µM (inactive) in the test on SK-OV-3; 15.6 µM (inactive) in the test with SR; 17.5 µM (inactive) in the test on RPMI-8226; 14.8 µM (inactive) with UACC-62; 17.9 µM (inactive) in the test on U-251. The GI50 with SNB-75 is 21.3 µM (inactive); in the test with SF-539, 18.1 µM (inactive); in the test with MDA-N, 14.7 µM (inactive); with UACC-257, 16.9 µM (inactive); in the test on MDA-MB-435, 16.2 µM (inactive); in the test with SK-MEL-28, 19 µM (inactive). In addition, the GI50 in the test with Malme-3M was 16.1 µM (inactive).
For `Cc1ccc([S+]([O-])CC(CF)OCn2cc(C)c(=O)[nH]c2=O)cc1` (stereo not given), the GI50 in the test on HL-60, with CAKI-1, in the test with SW-620, in the test on A549, in the test on PC-3 and with OVCAR-5 was > 100 µM (inactive) throughout. The GI50 in the test with NCI-H226, in the test on OVCAR-3, in the test with SK-OV-3, with SR, in the test on RPMI-8226 and with UACC-62 was > 100 µM (inactive) throughout. In addition, the GI50 with U-251, in the test with SNB-75, with SF-539, with MDA-N, with MDA-MB-435 and in the test on SK-MEL-28 was > 100 µM (inactive) each time. Further, the GI50 with Malme-3M was > 100 µM (inactive).
Take `COc1ccc(/C=C/C(=O)c2ccc(OC(=O)/C=C/c3ccccc3)cc2)cc1`: the GI50 in the test with HL-60 was 4.08 µM (inactive); with CAKI-1 it was 23.3 µM (inactive); with SW-620, 28.1 µM (inactive); with A549 it was 29.5 µM (inactive); in the test with PC-3, 25.7 µM (inactive); in the test on OVCAR-5 it was > 85.7 µM (inactive). For the same compound, the GI50 is 59.3 µM (inactive) in the test on NCI-H226; 32 µM (inactive) with OVCAR-3; 53 µM (inactive) in the test with SK-OV-3; 2.28 µM (inactive) in the test with SR; 3.7 µM (inactive) in the test with RPMI-8226; 22.7 µM (inactive) in the test with UACC-62. Moreover, the GI50 in the test on U-251 is 19 µM (inactive); in the test on SNB-75, 28.9 µM (inactive); in the test with SF-539, 11.5 µM (inactive); in the test with MDA-N, 14.5 µM (inactive); in the test with UACC-257, 37.7 µM (inactive); in the test on MDA-MB-435, 7.73 µM (inactive). Moreover, the GI50 is 43.6 µM (inactive) in the test on SK-MEL-28 and 41 µM (inactive) in the test with Malme-3M.

(Values after ChEMBL document CHEMBL1201862, “PubChem BioAssay data set” (2004).)
